Where no end group is shown, it is not given here.
Assays:
Water solubility = format: physicochemical; settings: gadofullerene agent
[1] = Relaxivity measurement of gadofullerenes; format: physicochemical
Protocol: Infrared spectrum of ZD2-Gd3N@C80 was performed using the Cary 630 FTIR Spectrometer (Agilent Technologies, Santa Clara, Calif., USA). Lyophilized hydroxylated Gd3N@C80 or ZD2-Gd3N@C80 was reconstituted to a serial dilution in water. The solutions were pipetted in NMR tubes (500 μL in each tube), and placed in a relaxometer (Bruker) at 1.5 Tesla. For relaxivity measurement at 7 Tesla, NMR tubes containing contrast agent solutions were bundled and placed in a mouse coil in a horizontal 7 Tesla Bruker scanner (Bruker Biospin Co., Billerica, Mass.). T, maps of the solutions were acquired using a previously reported method^29. T1 and T2 values of each solution were measured. The r1 and r2 relaxivities of the contrast agent were calculated as the slope of the plot of 1/T1 and 1/T2 relaxation rates against the concentrations.

MCF-7 tumours [2] = experiment: MRI at 1.0 Tesla, MCF-7 tumours; format: in vivo, mouse; settings: 1.67 μmol/kg i.v.
Protocol: MR images of the mice bearing MDA-MB-231 or MCF-7 tumour xenografts were acquired on an Aspect M3 small animal MRI scanner (1 Tesla). Mice were placed on a holder with the temperature maintained at 37° C., with isoflurane/oxygen mixture supplied to the mice through a nose cone. A thin catheter filled with PBS was connected to the tail vein of the mice. After mice were placed in the coil, a pilot scan was performed to adjust mice to the proper location in the coil. An axial T1-weighted sequence (TR=500 ms; TE=9 ms; Flip angle=90°; Field of view=3 cm×3 cm; Matrix size=128×128×8; slice thickness=2 mm; inter-slice distance=1 mm) was then used to acquire the images of the tumours before and 10 min, 20 min, and 30 min after contrast injection. Images were exported into DICOM data, which were then processed and analyzed using Matlab (Natick, Mass., USA). The contrast-to-noise ratio of tumours in the images was calculated as the difference between tumour mean intensity minus muscle mean intensity, divided by the noise. Three-dimensional images of mice were acquired using a gradient echo T1-weighted sequence with the following parameters: TR=17 ms; TE=6 ms; Flip angle=15°; Field of view=3.5 cm×8 cm; Matrix size=128×512×16; slice thickness=1.5 mm. […] The images were similarly analyzed as described above.

Size by TEM and DLS = format: physicochemical
[3] = tested on: Hs578T and ZR-75-1 xenografts; experiment: MRI at 7 T, mice bearing Hs578T and ZR-75-1 xenografts; format: in vivo, mouse; settings: 20 μmol Gd/kg, 30 min
Protocol: (§1) Female athymic nude mice were purchased from the Case Comprehensive Cancer Center and housed in the Case Center Imaging Research. All animal experiments were carried out according to a protocol approved by the IACUC of Case Western Reserve University. To initiate tumour xenografts, cells cultured in 150 mm dishes were trypsinized and centrifuged. Cell pellets from each dish were suspended in 100 μL PBS and reconstituted with Corning Matrigel Matrix High Concentration (Corning, Corning, N.Y., USA) to a concentration of 2×10^7 cells/mL on ice. The suspended cells in 100 μL matrigel solution were injected subcutaneously in the flank of mice (4-6 weeks) using a 19-gauge needle. After injection, a plug in flank was formed due to matrigel gelling. Tumours were allowed to grow for at least a month before imaging. […]
(§2) MR images of the mice bearing MDA-MB-231 or MCF-7 tumour xenografts were acquired on an Aspect M3 small animal MRI scanner (1 Tesla). […] Images were exported into DICOM data, which were then processed and analyzed using Matlab (Natick, Mass., USA). The contrast-to-noise ratio of tumours in the images was calculated as the difference between tumour mean intensity minus muscle mean intensity, divided by the noise. […] The images were similarly analyzed as described above.

MDA-MB-231 tumours [4] = experiment: MRI at 1.0 Tesla, MDA-MB-231 tumours; format: in vivo, mouse
Protocol: MR images of the mice bearing MDA-MB-231 or MCF-7 tumour xenografts were acquired on an Aspect M3 small animal MRI scanner (1 Tesla). Mice were placed on a holder with the temperature maintained at 37° C., with isoflurane/oxygen mixture supplied to the mice through a nose cone. A thin catheter filled with PBS was connected to the tail vein of the mice. After mice were placed in the coil, a pilot scan was performed to adjust mice to the proper location in the coil. An axial T1-weighted sequence (TR=500 ms; TE=9 ms; Flip angle=90°; Field of view=3 cm×3 cm; Matrix size=128×128×8; slice thickness=2 mm; inter-slice distance=1 mm) was then used to acquire the images of the tumours before and 10 min, 20 min, and 30 min after contrast injection. Images were exported into DICOM data, which were then processed and analyzed using Matlab (Natick, Mass., USA). The contrast-to-noise ratio of tumours in the images was calculated as the difference between tumour mean intensity minus muscle mean intensity, divided by the noise. Three-dimensional images of mice were acquired using a gradient echo T1-weighted sequence with the following parameters: TR=17 ms; TE=6 ms; Flip angle=15°; Field of view=3.5 cm×8 cm; Matrix size=128×512×16; slice thickness=1.5 mm. Analysis of the change in signal intensity in muscle, heart, liver, kidney, and bladder was performed using Matlab. MRI at 7 Tesla was performed on a horizontal Bruker scanner. T1-weighted spin echo sequence with the following parameters was used: field of view (FOV): 3 cm; slice thickness: 1.2 mm; interslice distance: 1.2 mm; TR: 500 ms, TE: 8.1 ms; flip angle: 90°; average: 2; matrix size: 128×128. The images were similarly analyzed as described above.

[5] = tested on: BT549 and T47D xenografts; experiment: MRI at 7 T, mice bearing BT549 and T47D xenografts; format: in vivo, mouse; settings: 20 μmol Gd/kg, 30 min
Protocol: as §1, §2

[6] = In vitro transmetallation assay with human serum; format: in vitro ADME; settings: 2 h
Protocol: We performed in vitro transmetallation assay according to the protocol reported previously. Briefly, ZD2-Gd3N@C80 (0.02 mM Gd/mL) was incubated with human serum for 2 h. According to previous reports, transmetallation of Gd with Zn^2+, Cu^2+ and Ca^2+ bound in serum proteins occurs rapidly and 2 h is sufficient to study the equilibrium of transmetallation. The mixtures were then centrifuged at 4000 rpm and 25° C. for 150 min using CF-10 centrifugal filters (molecular weight cutoff 10 kDa). Metal ions in both the upper reservoir and the filtrates were quantified by ICP-OES. […] The degree of transmetallation of ZD2-Gd3N@C80 with Zn^2+, Cu^2+ and Ca^2+ ions in serum was evaluated using the percentage of Zn^2+, Cu^2+ and Ca^2+ ions filtered through the membrane, calculated as Transmetallation (%)=(concentration of ions in the filtrates)/(total ion concentrations before filtration)×100. Human serum was used a control.

MDA-MB-231 spheres = experiment: ZD2-Cy5.5 binding, 3D culture of MDA-MB-231 cells; format: cell-based; settings: 250 nM, 1 h, confocal microscopy
Protocol: (§3) MDA-MB-231, Hs578T, BT549, MCF-7, ZR-75-1 and T47D were acquired from American Type Culture Collection (ATCC, Rockville, Md., USA). MDA-MB-231 cells were maintained in Dulbecco Modified Eagle Medium (DMEM) supplemented with 10% fetal bovine serum (FBS) and 5% penicillin/streptomycin (pen/strep). Hs578T, BT549 and MCF-7 cells were maintained in Eagle Minimum Essential Medium (EMEM) supplemented with 0.01 mg/ml human recombinant insulin, 10% FBS and 5% pen/strep. ZR-75-1 and T47D were maintained in RPMI 1640 medium supplemented with 10% FBS and 5% pen/strep. Three-dimensional culture of cells was achieved by an “on-top” matrigel method reported previously. Briefly, on a glass-bottom plate a thick layer of matrigel was coated, followed by plating MDA-MB-231 or MCF-7 cells on top of the matrigel. Once 3D sphere or clusters formed, ZD2-Cy5.5 was added to the medium to the final concentration of 250 nM. Binding of ZD2-Cy5.5 to the 3D spheres was evaluated using a confocal laser scanning microscope (Olympus Corporation, Tokyo, Japan) after culturing for 1 h.

MCF-7 cells = experiment: ZD2-Cy5.5 binding, 3D culture of MCF-7 cells; format: cell-based; settings: 250 nM, 1 h, confocal microscopy
Protocol: as §3

LNCaP cell clusters = experiment: ZD2-Cy5.5 binding, 3D matrigel culture of LNCaP cells; format: cell-based; settings: 250 nM, 1 h
Protocol: (§4) All reagents for chemical synthesis were purchased from Sigma Aldrich unless stated otherwise. PC3 and LNCaP cells were purchased from American Type Culture Collection (ATCC, Manassas, Va., USA), and grown in RPMI medium (Thermo Fisher Scientific, Waltham, Mass., USA) supplemented with 10% Fetal Bovine Serum (FBS) and 1% Penn/Strep at 37° C. in 5% CO2. To construct GFP-expressing cell lines, cells were transfected with lentivirus as previously reported. Matrigel 3D culture was formed following the 3D “on-top” protocol. Briefly, a glass-bottom plate was coated with a thick layer of freshly thawed matrigel, followed by solidifying the matrigel at 37° C. for 15-30 min. Cells were then plated onto the coated plate with medium containing 5% matrigel. The culture was maintained for at least 4-6 days and then ZD2-Cy5.5 (250 nM) was added to the culture medium. After 1 h, cells in the 3D matrigel were imaged with confocal laser fluorescence microscopy.

MCF-7 tumours [7] = experiment: Fluorescence imaging of tumour sections, MCF-7 model; settings: mouse, in vivo
Protocol: (§5) To determine the distribution of ZD2-Cy5.5 in the major organs and tumours, 10 nmol ZD2-Cy5.5 was injected in tumour-bearing mice through the tail vein. At 3 h after injection, mice were sacrificed. Tumours and organs were collected and imaged with CSi Maestro imaging system (Woburn, Mass., USA) using the deep red filter sets (exposure time: 1000 ms).
(§6) Tumours were embedded in Optimum Cutting Temperature Compound (OCT) and kept froze in −80° C. Tumour tissues sectioned at the thickness of 5 μm were then fixed and permeabilized with cold acetone. BSA (1%) in PBS was used to block the tissue at room temperature for 1 hour. Mouse anti-EDB-FN antibody, BC-1 (ab154210, Abcam, Cambridge, Mass., USA), diluted with 1% BSA (1:500) was applied to the tissue and incubated at room temperature for 1 hour. After extensive washing, AlexFluor594-conjugated anti-mouse IgG antibody (1:500) (Invitrogen, Eugene, Oreg., USA) was applied and incubated with the tissue for 1 hour. Tissue sections were then counterstained with Prolong Gold antifade mounting medium with DAPI (Invitrogen). Confocal laser scanning microscopy (FV1000, Olympus, Japan) was used to acquire the fluorescence images of the tissues. H&E staining of the tissue was performed at the tissue resource core of Case Western Reserve University. H&E staining images were acquired using the Virtual slide microscope VS120 (Olympus).

PC3 spheroids = experiment: ZD2-Cy5.5 binding, 3D matrigel culture of PC3 cells; format: cell-based; settings: 250 nM, 1 h
Protocol: as §4

MDA-MB-231 tumours [8] = experiment: Fluorescence imaging of tumours, organs and sections, MDA-MB-231 model; format: in vivo, mouse
Protocol: as §5, §6

[9] = tested on: LNCaP prostate tumor xenografts; experiment: Ex vivo fluorescence imaging and sections, LNCaP mouse model; format: in vivo; settings: confocal microscopy
Protocol: (§7) After fluorescence imaging of the organs, they were embedded in O.C.T and sectioned at 5 μm thickness, and mounted on to glass slides. The slides were fixed and permeabilized with cold acetone, followed by blocking with 1% BSA for 1 hour. DAPI or EDB-FN specific antibody, BC-1 (Abcam, Cambridge, Mass.), were applied subsequently for staining. Unbound antibodies were washed with TBS-T (0.1%). Alexa Fluor 594-conjugated goat anti-mouse IgG H&L (Abcam) was used as the secondary antibody. Prolong Gold antifade solution (Invitrogen, Grand Island, N.Y.), was used to cover the slides. The stained tissue sections were imaged using confocal laser scanning microscopy.
(§8) The targeted binding of ZD2-Cy5.5 to the prostate tumor was assessed ex vivo using Maestro FLEX In vivo Imaging System (Caliper Life Sciences, Hopkinton, Mass.) using a red filter set (spectral range of 630-910 nm, 1000 ms exposure time). ZD2-Cy5.5 (10 nmol) was administered to study the in vivo distribution of ZD2-based probes. At 3 h post-injection, the mice were sacrificed to image the tumors and the organs.

[10] = tested on: PC3 prostate tumor xenografts; experiment: Ex vivo fluorescence imaging, PC3 mouse model; format: in vivo; settings: 3 hours after intravenous injection, 10 nmol
Protocol: as §7, §8

ZD2-Gd3N@C80: ZD2-Cys peptide conjugated to maleimido hydroxylated gadofullerene Gd3N@C80, about one peptide per cage (CTVRTSAD; also: conjugated to maleimido hydroxylated gadofullerene Gd3N@C80, about one peptide per cage)
water solubility (Water solubility): complete water solubility | r1 relaxivity per Gd(III) ion ([1]; 1.5 Tesla): 74.6 mM⁻¹ s⁻¹ | r1 relaxivity per molecule ([1]; 1.5 Tesla): 223.8 mM⁻¹ s⁻¹ | r1 relaxivity per Gd(III) ion ([1]; 7 Tesla): 24.78 mM⁻¹ s⁻¹ | r1 relaxivity relative to clinical Gd(III)-based contrast agents ([1]; vs Gd-DTPA and Gd(HP-DO3A)): ~20 times | signal enhancement in MCF-7 tumours (MCF-7 tumours [2]): little enhancement | average radius (Size by TEM and DLS; DLS): 1.40 nm | average diameter (Size by TEM and DLS; TEM and DLS): 2.8 nm | signal enhancement and CNR increase in Hs578T vs ZR-75-1 tumours [3]: greater signal enhancement and significantly higher CNR increase | signal enhancement in MDA-MB-231 tumours (MDA-MB-231 tumours [4]; 1.67 μmol/kg i.v., 1.0 Tesla, at least 30 minutes): Significant signal enhancement | signal enhancement in MDA-MB-231 tumours with co-injection of ZD2 peptide (MDA-MB-231 tumours [4]; 1.67 μmol/kg with 25 μmol/kg ZD2 peptide): significantly reduced the signal enhancement | increase of contrast-to-noise ratio (CNR) in MDA-MB-231 tumours (MDA-MB-231 tumours [4]; 1.67 μmol/kg, 10-30 min): 39 to 45% | signal enhancement and CNR increase in BT549 vs T47D tumours [5]: greater signal enhancement and significantly higher CNR increase | transmetallation [6]: < 0.12%

ZD2-Cy5.5: linear ZD2 peptide with PEG spacer conjugated to Cy5.5 NHS ester (TVRTSAD; also: PEG spacer conjugated to Cy5.5 NHS ester)
fluorescence of MDA-MB-231 spheres (MDA-MB-231 spheres): strong fluorescence intensity | binding and fluorescence of MCF-7 cells (MCF-7 cells): lower ZD2-Cy5.5 binding and weaker fluorescence intensity | binding to LNCaP cell clusters (LNCaP cell clusters): no peptide binding was detected | ZD2-Cy5.5 binding in MCF-7 tumour sections (MCF-7 tumours [7]): little | binding to PC3 spheroids (PC3 spheroids): able to bind EDB-FN secreted by the PC3 spheroids | fluorescence intensity in MDA-MB-231 tumours vs MCF-7 tumours and normal tissues (MDA-MB-231 tumours [8]; 0.5 μmol/kg i.v., 3 hours after injection): greater | fluorescence signal in the liver and kidneys (MDA-MB-231 tumours [8]; 3 hours after injection): Relatively high fluorescence signal intensity | Cy5.5 fluorescence of MDA-MB-231 tumour sections (MDA-MB-231 tumours [8]; mouse, in vivo): strong Cy5.5 fluorescence | probe in LNCaP tumor sections [9]: undetectable | fluorescence signal of PC3 tumors vs normal organs [10]: enhanced fluorescence signal

— US11738099B2, “Molecular probes and methods of use” (CASE WESTERN RESERVE UNIVERSITY, priority 2014, dated 2023)
